# Assay results as given in ChEMBL document CHEMBL4130427, “Synthesis and evaluation of asymmetric curcuminoid analogs as potential anticancer agents that downregulate NF-κB activation and enhance the sensitivity of gastric cancer cell lines to irinotecan chemotherapy” (Eur J Med Chem, 2017).
# Activity calls are given as the source filed them. The calls are words filed in the database; no cut-off is given here.
# Key:
# BGC-823 [1] = test: Potency index, ratio of compound effect to curcumin effect for growth inhibition of human BGC823 cells; format: functional
# Homo sapiens [2] = species on record: Homo sapiens; test: Inhibition of NFkappaB activation in human BGC823 cells assessed as potentiation of irrinotecan-induced cell growth inhibition at 1 uM after 48 hrs by inverted microscopic method relative to (3E,5E)-3-(2,3-dimethoxybenzylidene)-5-(4-hydroxy-3-methoxybenzylidene)dihydro-2H-pyran-4(3H)-one alone; format: cell-based
# Homo sapiens [3] = species on record: Homo sapiens; test: Inhibition of NFkappaB activation in human BGC823 cells assessed as potentiation of irrinotecan-induced cell growth inhibition at 1 uM after 48 hrs by inverted microscopic method relative to irrinotecan alone; format: cell-based
# SGC-7901 [4] = test: Inhibition of colony formation in human SGC7901 cells treated for 12 hrs followed by incubation in drug free medium for 14 days by crystal violet staining based assay; format: functional, cell-based
# Homo sapiens [5] = species on record: Homo sapiens; test: Inhibition of NFkappaB activation in human BGC823 cells assessed as potentiation of irrinotecan-induced decrease in survival cell count at 1 uM after 48 hrs by cell analyzer method; format: cell-based
# SGC-7901 [6] = test: Growth inhibition of human SGC7901 cells after 72 hrs by MTT assay; format: functional, cell-based; details: SGC-7901, 72 h
# Homo sapiens [7] = species on record: Homo sapiens; test: Inhibition of NFkappaB activation in human SGC7901 cells assessed as reduction in TNFalpha-induced IkBalpha degradation at 1 to 5 uM preincubated for 2 hrs followed by TNFalpha addition measured after 30 mins by Western blot method; format: cell-based
# Mus musculus = species on record: Mus musculus; test: Growth inhibition of MFC cells at 20 uM after 72 hrs by MTT assay; format: functional
# BGC-823 [8] = test: Growth inhibition of human BGC823 cells after 72 hrs by MTT assay; format: functional, cell-based; details: BGC-823, 72 h
# BGC-823 [9] = test: Induction of apoptosis in human BGC823 cells assessed as downregulation of bcl2 protein expression at 2.5 to 5 uM after 48 hrs by Western blot method; format: functional, cell-based
# BGC-823 [10] = test: Inhibition of colony formation in human BGC823 cells treated for 12 hrs followed by incubation in drug free medium for 14 days by crystal violet staining based assay; format: functional, cell-based
# SGC-7901 [11] = test: Induction of apoptosis in human SGC7901 cells assessed as upegulation of Bax protein expression at 2.5 to 5 uM after 48 hrs by Western blot method; format: functional, cell-based
# SGC-7901 [12] = test: Potency index, ratio of compound effect to curcumin effect for growth inhibition of human SGC7901 cells; format: functional
# Homo sapiens [13] = species on record: Homo sapiens; test: Inhibition of NFkappaB activation in human BGC823 cells assessed as reduction in TNFalpha-induced IkBalpha degradation at 1 to 5 uM preincubated for 2 hrs followed by TNFalpha addition measured after 30 mins by Western blot method; format: cell-based
# SGC-7901 [14] = test: Induction of apoptosis in human SGC7901 cells assessed as upegulation of cleaved PARP protein expression at 2.5 to 5 uM after 48 hrs by Western blot method; format: functional, cell-based
# BGC-823 [15] = test: Induction of apoptosis in human BGC823 cells assessed as upegulation of cleaved PARP protein expression at 2.5 to 5 uM after 48 hrs by Western blot method; format: functional, cell-based
# SGC-7901 [16] = test: Growth inhibition of human SGC7901 cells at 20 uM after 72 hrs by MTT assay; format: functional, cell-based
# Homo sapiens [17] = species on record: Homo sapiens; test: Inhibition of NFkappaB activation in human BGC823 cells assessed as potentiation of irrinotecan-induced cell growth inhibition at 1 uM after 72 hrs by MTT method relative to irrinotecan alone; format: cell-based
# BGC-823 [18] = test: Growth inhibition of human BGC823 cells at 20 uM after 72 hrs by MTT assay; format: functional, cell-based
# BGC-823 [19] = test: Induction of apoptosis in human BGC823 cells assessed as upegulation of cleaved caspase-3 protein expression at 2.5 to 5 uM after 48 hrs by Western blot method; format: functional, cell-based
# BGC-823 [20] = test: Induction of apoptosis in human BGC823 cells assessed as upegulation of Bax protein expression at 2.5 to 5 uM after 48 hrs by Western blot method; format: functional, cell-based
# SGC-7901 [21] = test: Induction of apoptosis in human SGC7901 cells assessed as downregulation of bcl2 protein expression at 2.5 to 5 uM after 48 hrs by Western blot method; format: functional, cell-based
# Homo sapiens [22] = species on record: Homo sapiens; test: Inhibition of NFkappaB activation in human BGC823 cells assessed as potentiation of irrinotecan-induced decrease in colony formation at 1 uM preincubated for 12 hrs followed by incubation in drug free medium for 11 days by crystal violet staining based assay; format: cell-based
# Homo sapiens [23] = species on record: Homo sapiens; test: Inhibition of NFkappaB activation in human BGC823 cells assessed as potentiation of irrinotecan-induced cell growth inhibition at 1 uM after 72 hrs by MTT method relative to (3E,5E)-3-(2,3-dimethoxybenzylidene)-5-(4-hydroxy-3-methoxybenzylidene)dihydro-2H-pyran-4(3H)-one alone; format: cell-based
# SGC-7901 [24] = test: Induction of apoptosis in human SGC7901 cells assessed as apoptotic nuclei formation at 2.5 to 5 uM after 24 hrs by Hoechst 33258 staining based fluorescence microscopic method; format: functional, cell-based
# SGC-7901 [25] = test: Induction of apoptosis in human SGC7901 cells assessed as upegulation of cleaved caspase-3 protein expression at 2.5 to 5 uM after 48 hrs by Western blot method; format: functional, cell-based
# SGC-7901 [26] = test: Inhibition of colony formation in human SGC7901 cells at 5 uM treated for 12 hrs followed by incubation in drug free medium for 14 days by crystal violet staining based assay; format: functional, cell-based
# BGC-823 [27] = test: Inhibition of colony formation in human BGC823 cells at 5 uM treated for 12 hrs followed by incubation in drug free medium for 14 days by crystal violet staining based assay; format: functional, cell-based
compound,measurement,setting,value
COc1cc(/C=C2\COC/C(=C\c3cccc(OC)c3OC)C2=O)ccc1O,Ratio,BGC-823 [1],>10
same,fold change (FC),Homo sapiens [2],3
same,fold change (FC),Homo sapiens [3],2
same,inhibition,SGC-7901 [4],Dose-dependent effect
same,inhibition,Homo sapiens [5],Active
same,IC50,SGC-7901 [6],1.6 µM
same,inhibition,Homo sapiens [7],Dose-dependent effect
same,growth inhibition (GI),Mus musculus,Active
same,IC50,BGC-823 [8],3.5 µM
same,Activity,BGC-823 [9],Active
same,inhibition,BGC-823 [10],Dose-dependent effect
same,Activity,SGC-7901 [11],Active
same,Ratio,SGC-7901 [12],>2
same,inhibition,Homo sapiens [13],Dose-dependent effect
same,Activity,SGC-7901 [14],Active
same,Activity,BGC-823 [15],Active
same,growth inhibition (GI),SGC-7901 [16],Active
same,fold change (FC),Homo sapiens [17],10
same,growth inhibition (GI),BGC-823 [18],Active
same,Activity,BGC-823 [19],Active
same,Activity,BGC-823 [20],Active
same,Activity,SGC-7901 [21],Active
same,inhibition,Homo sapiens [22],Active
same,fold change (FC),Homo sapiens [23],2.5
same,Activity,SGC-7901 [24],Active
same,Activity,SGC-7901 [25],Active
Cc1ccc2nc(NCCN)c3ncc(C)n3c2c1,growth inhibition (GI),Mus musculus,Active
same,growth inhibition (GI),SGC-7901 [16],Active
same,growth inhibition (GI),BGC-823 [18],Active
Cc1ccc(S(=O)(=O)/C=C/C#N)cc1,inhibition,SGC-7901 [26],Active
same,inhibition,BGC-823 [27],Active
COc1ccc(/C=C2\COC/C(=C\c3ccc(O)c(OC)c3)C2=O)cc1O,Ratio,BGC-823 [1],>10
same,growth inhibition (GI),Mus musculus,Active
same,Ratio,SGC-7901 [12],>2
same,growth inhibition (GI),SGC-7901 [16],Active
same,growth inhibition (GI),BGC-823 [18],Active
COc1cc(/C=C/C(=O)CC(=O)/C=C/c2ccc(O)c(OC)c2)ccc1O,growth inhibition (GI),Mus musculus,Active
same,growth inhibition (GI),SGC-7901 [16],Active
same,growth inhibition (GI),BGC-823 [18],Active
COc1ccc(OC)c(/C=C2\COC/C(=C\c3ccc(O)c(OC)c3)C2=O)c1,Ratio,BGC-823 [1],>10
same,growth inhibition (GI),Mus musculus,Active
same,Ratio,SGC-7901 [12],>2
same,growth inhibition (GI),SGC-7901 [16],Active
same,growth inhibition (GI),BGC-823 [18],Active
COc1ccc(/C=C2\COC/C(=C\c3ccc(O)c(OC)c3)C2=O)c(C(F)(F)F)c1,Ratio,BGC-823 [1],>10
same,Ratio,SGC-7901 [12],>2
same,growth inhibition (GI),SGC-7901 [16],Active
same,growth inhibition (GI),BGC-823 [18],Active
COc1ccc(/C=C2\COC/C(=C\c3ccc(O)c(OC)c3)C2=O)c(OC)c1,Ratio,SGC-7901 [12],>2
same,growth inhibition (GI),SGC-7901 [16],Active
